Test results as given in ChEMBL document CHEMBL3046241, “Synthesis and evaluation of 2-amino-5-sulfanyl-1,3,4-thiadiazoles as antidepressant, anxiolytic, and anticonvulsant agents” (Med Chem Res, 2009).
Calls of active or inactive are those of the source. The calls are words filed in the database; no cut-off is given here.

Experiments:
[1] = tested on: Mus musculus; assay: Antidepressant activity in Mus musculus Swiss albino (mouse) assessed as duration of immobility at 25 mg/kg, ip measured after 1 hr by forced swim test test relative to pretreatment; assay type: functional; conditions: route intraperitoneal
[2] = tested on: Mus musculus; assay: Anxiolytic activity in Mus musculus Swiss albino (mouse) assessed as time spent in light chamber at 25 mg/kg by light-dark box test; assay type: functional
[3] = tested on: Mus musculus; assay: Anticonvulsant activity against maximal electroshock-induced seizures in Mus musculus Swiss albino (mouse) assessed as time duration of tonic limb extensor at 25 mg/kg; assay type: functional
[4] = tested on: Mus musculus; assay: Anticonvulsant activity against pentylenetetrazole-induced seizures in Mus musculus Swiss albino (mouse) assessed as onset of seizures at 25 mg/kg, po administered 1 hr prior challenge; assay type: functional
[5] = organism: Mus musculus; assay: Anxiolytic activity in Mus musculus Swiss albino (mouse) assessed as time spent in open arm by elevated plus maze test; assay type: functional
[6] = tested on: Mus musculus; assay: Toxicity in Mus musculus Swiss albino (mouse) assessed as mortality at 25 mg/kg, po; assay type: organism-based; parameters: dose 25 mg/kg, route oral; conditions: in vivo
[7] = tested on: Mus musculus; assay: Antidepressant activity in Mus musculus Swiss albino (mouse) assessed as as increase in mobile phase at 25 mg/kg, ip measured after 1 hr by tail suspension test; assay type: functional; conditions: route intraperitoneal
[8] = tested on: Mus musculus; assay: Anticonvulsant activity against maximal electroshock-induced seizures in Mus musculus Swiss albino (mouse) assessed as animals protected at 25 mg/kg; assay type: functional
[9] = tested on: Mus musculus; assay: Toxicity in Mus musculus Swiss albino (mouse) assessed as mortality at 4 mg/kg, po; assay type: organism-based; parameters: dose 4 mg/kg, route oral; conditions: in vivo
[10] = tested on: Mus musculus; assay: Anticonvulsant activity against pentylenetetrazole-induced seizures in Mus musculus Swiss albino (mouse) assessed as onset of seizures at 4 mg/kg, po administered 1 hr prior challenge; assay type: functional, organism-based; parameters: dose 4 mg/kg
[11] = tested on: Mus musculus; assay: Anxiolytic activity in Mus musculus Swiss albino (mouse) assessed as time spent in light chamber at 2 mg/kg by light-dark box test; assay type: functional
[12] = tested on: Mus musculus; assay: Antidepressant activity in ip dosed Mus musculus Swiss albino (mouse) assessed as duration of immobility measured after 1 hr by forced swim test relative to pretreatment; assay type: functional
[13] = tested on: Mus musculus; assay: Anticonvulsant activity against maximal electroshock-induced seizures in Mus musculus Swiss albino (mouse) assessed as animals protected at 40 mg/kg; assay type: functional
[14] = tested on: Mus musculus; assay: Anticonvulsant activity against maximal electroshock-induced seizures in Mus musculus Swiss albino (mouse) assessed as time duration of tonic limb extensor at 40 mg/kg; assay type: functional

Row | SMILES | Activity [1] | Time [2] | Time [3] | Time [4] | Time [5] | Activity [6] | Activity [7] | Activity [8] | Activity [9] | Activity [10] | Time [11] | Activity [12] | Activity [13] | Time [14]
1 | O=C(Nc1nnc(Sc2ccc(C(F)(F)F)cc2)s1)c1ccccc1 | -29.78% | 163 s | 6.18 s | 81.74 s | 29.86 s | Toxic | 46.93% | 0% | – | – | – | – | – | –
2 | CN1C(=O)CN=C(c2ccccc2)c2cc(Cl)ccc21 [DIAZEPAM] | – | – | – | – | 58.76 s | – | – | – | Non-toxic | Active | 193 s | – | – | –
3 | NS(=O)(=O)c1ccc(Sc2nnc(NC(=O)c3ccccc3)s2)cc1 | -33.22% | 163.66 s | 6.7 s | 86.98 s | 38.5 s | Toxic | 49.86% | 0% | – | – | – | – | – | –
4 | CN(C)CCCN1c2ccccc2CCc2ccccc21.Cl [IMIPRAMINE HYDROCHLORIDE] | – | – | – | – | – | – | – | – | – | – | – | -47.48% | – | –
5 | O=C(Nc1nnc(Sc2ccc(F)cc2)s1)c1ccccc1 | -20.3% | 153.66 s | 6.37 s | 91.416 s | 32.694 s | Non-toxic | 28.45% | 0% | – | – | – | – | – | –
6 | O=C1NC(=O)C(c2ccccc2)(c2ccccc2)N1 [PHENYTOIN] | – | – | – | – | – | – | – | – | – | – | – | – | 100% | 0 s
7 | O=C(Nc1nnc(Sc2ccc(Br)cc2)s1)c1ccccc1 | 1.1% | 153.16 s | 7.96 s | 78.27 s | 20.88 s | Toxic | 12% | 0% | – | – | – | – | – | –
8 | O=C(Nc1nnc(Sc2ccc(C(Cl)(Cl)Cl)cc2)s1)c1ccccc1 | -22.15% | 152.33 s | 7.08 s | 71.21 s | 20.38 s | Non-toxic | 30.7% | 0% | – | – | – | – | – | –
9 | Cc1ccc(Sc2nnc(NC(=O)c3ccccc3)s2)cc1 | 1.35% | 143 s | 7.35 s | 78.35 s | 31.13 s | Non-toxic | 17.26% | 0% | – | – | – | – | – | –
10 | O=C(Nc1nnc(Sc2ccc(S(=O)(=O)Cl)cc2)s1)c1ccccc1 | -33.58% | 166.66 s | 6.25 s | 102.26 s | 34.11 s | Non-toxic | 49.29% | 0% | – | – | – | – | – | –
